Key:
Assay type in all cases: in vivo
[1] = tested on: Benthamiana tobacco (Nicotiana benthamiana); test: Test Example 9: reduction of low-temperature stress in hydroponics of tobacco; details: tobacco seedlings, medium with 0.1 ppm compound for 7 days; low-temperature stress 1.5±1.0° C. 7 days, then 3 days at 22° C.
Protocol: Evaluation Test for Reduction of Low-Temperature Stress in Hydroponics of Tobacco (Nicotiana benthamiana) Benthamiana tobacco (Nicotiana benthamiana) DMSO solutions containing each of the present compounds 1, 4 and 5 at a concentration of 100 ppm were prepared. […] These media were used in the treated-group. In a non-treated group, a medium obtained by adding a 1/1,000 volume of DMSO to a Murashige-and-Skoog medium at ½ concentration was used. The seeds of tobacco (Nicotiana benthamiana) were sown on 5 μL of the medium, and incubated at 22° C. overnight. Thereto was added 45 μL of a medium containing each present compound at a concentration of 0.1 ppm, and cultivated for 7 days under the conditions of an illuminance of 4,000 lux, a temperature of 22° C. and a day length of 16 hours, thereby treating the seedlings of tobacco (Nicotiana benthamiana) with the test compound. In the non-treated group, 45 μL of a medium obtained by adding a 1/1,000 volume of DMSO to a Murashige-and-Skoog medium at ½ concentration was added, and treated in the same manner as above. The seedlings of tobacco (Nicotiana benthamiana) treated with the present compounds were cultivated for 7 days under the conditions of an illuminance of 2,000 lux, a temperature of 1.5±1.0° C., and a day length of 16 hours, thereby subjecting to low-temperature stress treatment. The plants of tobacco (Nicotiana benthamiana) subjected to low-temperature stress treatment was cultivated for 3 days under the conditions of an illuminance of 4,000 lux, a temperature of 22° C., and a day length of 16 hours, and then the green leaf area of the plants was visually evaluated. Completely dead plant was scored as 0, the plant without low-temperature stress treatment was scored as 5, the green area was rated on a 6-point scale in ⅕ increments, and the score of not less than 1 was regarded as effective in reducing the stress. As a result of visual evaluation, the green leaf area of plants in the treated group, wherein the plants were treated with the present compound 1, 4 or 5 was much larger than that in the non-treated group.

[2] = tested on: Corn (cultivar: Kuromochi); test: Test Example 2: promotion of growth by treatment of corn seeds; details: corn seed treatment, 50 g per 100 kg of seeds; cultivated 18 days at 27° C.
Protocol: Evaluation Test for Promotion of Growth by Treatment of Corn Seeds Corn (cultivar: Kuromochi) A blank slurry solution containing 10% (V/V) color coat red (Becker Underwood, Inc.), 10% (V/V) CF-Clear (Becker Underwood, Inc.) and 1.66% Maxim 4FS (Syngenta) was prepared. A slurry solution was prepared by dissolving the present compound 1 in the blank slurry solution such that 50 g of the compound is applied to each 100 kg of corn seeds. In a 50-ml centrifuge tube (manufactured by BD Japan), 0.35 ml of the slurry solution was placed for each 14.4 g of corn seeds and stirred until the solution was dried, thereby coating the seeds. In addition, seeds were coated with the blank slurry solution and used as seeds for a non-treated group. One of the treated seeds was sown in culture soil (AISAI) in each pot (55 mm in diameter×58 mm in height) and cultivated for 18 days under the conditions of a temperature of 27° C., an illuminance of 5,000 lux, and a day length of 16 hours. After the cultivation, the fresh weight of the overground part of the plants was measured. The experiment was performed in three replications for each treatment condition and the average weight per individual was calculated. […]

[3] = tested on: Corn (cultivar: Kuromochi); test: Test Example 3: reduction of low-temperature stress by treatment of corn seeds; details: corn seed treatment, low-temperature stress 2.5±1° C. 4 days, then 4 days at 27° C.
Protocol: Evaluation Test for Reduction of Low-Temperature Stress by Treatment of Corn Seeds Corn (cultivar: Kuromochi) A blank slurry solution containing 10% (V/V) color coat red (Becker Underwood, Inc.), 10% (V/V) CF-Clear (Becker Underwood, Inc.) and 1.66% Maxim 4FS (Syngenta) was prepared. A slurry solution was prepared by dissolving the present compound 1 in the blank slurry solution such that 0.5 g, 5 g or 50 g of the compound is applied to each 100 kg of corn seeds. In a 50-ml centrifuge tube (manufactured by BD Japan), 0.35 ml of the slurry solution was placed for each 14.4 g of corn seeds and stirred until the solution was dried, thereby coating the seeds. In addition, seeds were coated with the blank slurry solution and used as seeds for a non-treated group. One of the treated corn seeds was sown in culture soil (AISAI) in each pot (55 mm in diameter×58 mm in height) and cultivated for 10 days under the conditions of a temperature of 27° C., an illuminance of 5,000 lux, and a day length of 16 hours. The grown seedlings were used for the test. The pots at 10 days after the sowing were placed into an artificial weather control room (VHT-2-15P-NC2-S, manufactured by Nippon Medical & Chemical Instruments Co., Ltd) and cultivated for 4 days under the following conditions: • temperature: 2.5±1° C., day length: 16 hours, and illuminance: 5,000 lux. <Evaluation Method> After the low-temperature stress treatment, the plants were cultivated for 4 days under the conditions of a temperature of 27° C., an illuminance of 5,000 lux, and a day length of 16 hours. Then, the fresh weight of the overground part of the plants was measured. The experiment was performed in five replications for each treatment condition and the average weight per individual was calculated. As a result, the fresh weight of the overground part of plants in the treated group of applying 0.5 g, 5 g or 50 g of the present compound 1 to each 100 kg of seeds was much heavier than that in the non-treated group.

For `COC(=O)c1cc2cc(C(F)(F)F)ccc2s1` [compound 1], the “green leaf area of plants (visual evaluation) vs non-treated group” value [1] was “much larger”, the “fresh weight of the overground part of plants vs non-treated group” value (from here on “fresh weight … vs non-treated group”) [2] was “much heavier” and the “fresh weight … vs non-treated group” value ([3]; 0.5 g per 100 kg of seeds) was “much heavier”. The “fresh weight … vs non-treated group” value ([3]; 5 g per 100 kg of seeds) was “much heavier” and the “fresh weight … vs non-treated group” value ([3]; 50 g per 100 kg of seeds) was “much heavier”.
